Reference: PMC9271751, “Synthesis and Evaluation of Coumarin-Chalcone Derivatives as α-Glucosidase Inhibitors” (Frontiers in Chemistry, 2022)
Read-outs that look alike come from different tables or passages of the source.

Columns and labels:
[1] = biological target: T1, α-Glucosidase from Saccharomyces cerevisiae (EC 3.2.1.20) (Saccharomyces cerevisiae, UniProt P53341); assay: biochemical
T1 construct: purchased Sigma-Aldrich
Method: Ethyl acetoacetate, salicylaldehyde and absolute ethanol were analytical pure grade and purchased from Aladdin (Shanghai) Reagent Co., Ltd. Piperidine; glacial acetic acid, petroleum ether and ethyl acetate were supplied by Titan (Shanghai) Technology Co., Ltd.; α-Glucosidase from Saccharomyces cerevisiae (EC 3.2.1.20), 4-nitrophenyl-α-D-[…] (p-NPG), and Dimethyl sulfoxide (DMSO) were supported by Sigma-Aldrich (United States) Chemical Co., Ltd. Melting points were tested on a micro melting-point instrument. ^1H NMR spectra were measured (CDCl3) by Bruker DPX-500 MHz AVANCE with TMS as an internal standard. Mass spectroscopy was performed on a (LCQTM). The absorbance was recorded by a micro-plate reader.
The α-glucosidase inhibitory activity assay of coumarin-chalcone derivatives 3 (a∼v) was conducted using p-NPG as a substrate. ([Pogaku et al., 2019]; [Saeedi et al., 2019]; [Xu et al., 2019]). 10 μl of the test compound and 10 μl of the enzyme (final concentration 0.1 U/ml) were added to 130 μl of PBS (0.1 M phosphate, pH 6.8), and incubated at 37°C for 10 min. Then p-NPG (final concentration 0.25 mM) was added and the absorbance change was measured by a micro-plate reader at 405 nm. All experiments were assayed four times. The percentage of inhibition was obtained using the formula: Inhibition (%) = […] × 100%, where OD1 and OD0 represent the absorbance value of the experimental group and the blank group respectively. […] The IC50 value of each compound was obtained from the fitting curve of inhibition vs. compound concentration.

[2] = biological target: T1, α-Glucosidase from Saccharomyces cerevisiae (EC 3.2.1.20); assay: α-Glucosidase inhibition kinetics (v vs. enzyme concentration, Lineweaver-Burk plots); format: biochemical; conditions: for Inhibition mechanism (inhibition type): Lineweaver-Burk double reciprocal plot, p-NPG 0.25-1 mM; for Inhibition mechanism (inhibition type) / Reversibility of inhibition: compound 0, 25, 30, 40 μM; for KIS: enzyme-substrate complex, secondary plot of intercept vs. compound concentration; for Reversibility of inhibition: plots of v vs. α-glucosidase concentration (0.075-0.15 U/mL)
Excerpt: Generally, according to the type of inhibition, enzyme inhibitors can be divided into reversible inhibitors and irreversible inhibitors ([Abuelizz et al., 2019]). In order to obtain the principle of the combination of enzyme inhibitors and enzymes, it is necessary to study the interaction between enzyme inhibitors and enzymes. Compounds 3j, 3q and 3t with strongest inhibitory activity were chosen for the research of inhibition kinetics against α-glucosidase (the inhibitory mechanism analysis of compound 3t was shown in Figure 2 and figures for the inhibitory mechanism analysis of compounds 3j and 3q have been shown in the supporting information). A series of plots of enzymatic reaction rate (v) vs. α-glucosidase concentration in the presence of inhibitors were generated to identify the type of inhibition that is listed in Figure 1.
The inhibit type of inhibitors on α-glucosidase include four types, named competitive inhibition, non-competitive inhibition, mixed inhibition, and anti-competitive inhibition ([Abuelizz et al., 2019]). The inhibition modes of compounds 3j, 3q and 3t against α-glucosidase were investigated using Lineweaver-Burk double reciprocal plot.
The type of inhibition was identified by the plots of enzymatic reaction rate (V) vs. α-glucosidase concentration. The test method was similar to the above enzyme activity assay. In the presence of different concentrations of compounds 3j, 3q and 3t, respectively (0, 25, 30, and 40 μM), the absorbance change was detected under different concentrations of α-glucosidase (0.075, 0.1, 0.125, and 0.15 U/mL).
The inhibition mode was also detected using a similar method to that described above. In the presence of different concentrations of compounds 3j, 3q and 3t, respectively (0, 25, 30 and 40 μM), the absorbance change was measured under different concentrations of p-NPG (0.25, 0.5, 0.75, 1 mM). The inhibition mode of the inhibitor was obtianed using Lineweaver-Burk plots. The constant KI was obtained by secondary plots of the derivatives concentration (I) vs. Slope, constant KIS was obtained by secondary plots of the derivatives concentration (I) vs. Intercept.

[3] = p-NPG 0.25 mM, enzyme 0.1 U/ml, PBS pH 6.8, 37°C, read-out: IC50, α-glucosidase inhibitory activity

T1 sequence (P53341 whole entry): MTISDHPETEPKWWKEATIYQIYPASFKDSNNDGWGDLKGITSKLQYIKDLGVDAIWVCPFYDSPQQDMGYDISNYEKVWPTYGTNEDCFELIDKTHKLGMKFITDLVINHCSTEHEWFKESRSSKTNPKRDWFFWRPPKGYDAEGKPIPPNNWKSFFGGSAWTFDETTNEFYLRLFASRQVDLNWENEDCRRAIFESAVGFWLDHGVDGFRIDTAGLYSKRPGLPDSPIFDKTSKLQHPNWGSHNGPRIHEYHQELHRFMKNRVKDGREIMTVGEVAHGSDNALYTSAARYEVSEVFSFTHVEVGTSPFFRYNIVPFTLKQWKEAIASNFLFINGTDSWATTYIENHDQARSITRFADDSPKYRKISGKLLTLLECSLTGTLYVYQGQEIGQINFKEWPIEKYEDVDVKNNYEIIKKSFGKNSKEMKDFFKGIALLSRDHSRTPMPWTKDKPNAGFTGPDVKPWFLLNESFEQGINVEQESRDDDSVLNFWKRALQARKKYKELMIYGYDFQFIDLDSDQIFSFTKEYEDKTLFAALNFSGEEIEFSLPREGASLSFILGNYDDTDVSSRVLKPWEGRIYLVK

| Compound | IC50 [1, 3] [µM] | IC50 [1] [µM] | also measured |
| --- | --- | --- | --- |
| O=C(/C=C/c1cc2ccccc2[nH]1)c1cc2ccccc2oc1=O [Compound 3v, (E)-3-[3-( ^ 1 H-indol-2-yl)acryloyl]-2H-chromen-2-one] | 103 ± 1.45 | – | – |
| O=C(/C=C/c1ccccc1F)c1cc2ccccc2oc1=O [Compound 3g, (E)-3-[3-(2-fluorophenyl)acryloyl]-2H-chromen-2-one] | – | 48.4 ± 1.42 | – |
| CSc1ccc(/C=C/C(=O)c2cc3ccccc3oc2=O)cc1 [Compound 3f, (E)-3-{3-[4-(methylthio)phenyl]acryloyl}-2H-chromen-2-one] | 75.5 ± 0.98 | – | – |
| O=C(/C=C/c1ccc(F)cc1F)c1cc2ccccc2oc1=O [Compound 3j, (E)-3-[3-(2,4-difluorophenyl)acryloyl]-2H-chromen-2-one] | 30.3 ± 2.53 | – | Inhibition mechanism (inhibition type) [2]: mixed-type inhibition; KIS ([2]; inhibition constant): 25.94 µM; Ki ([2]; inhibition constant, free enzyme, secondary plot of slope vs. compound concentration, read-out: KI): 19.5 µM; Reversibility of inhibition [2]: reversible |
| O=C(/C=C/c1cccs1)c1cc2ccccc2oc1=O [Compound 3u, (E)-3-[3-(thiophen-2-yl)acryloyl]-2H-chromen-2-one] | 109 ± 2.69 | – | – |
| O=C(/C=C/c1ccccc1Br)c1cc2ccccc2oc1=O [Compound 3r, (E)-3-[3-(2-bromophenyl)acryloyl]-2H-chromen-2-one] | – | 38.6 ± 1.87 | – |
| O=C(/C=C/c1cccc(C(F)(F)F)c1)c1cc2ccccc2oc1=O [Compound 3m, (E)-3-{3-[3-(trifluoromethyl)phenyl]acryloyl}-2H-chromen-2-one] | 64.7 ± 1.82 | – | – |
| O=C(/C=C/c1ccc(Cl)cc1)c1cc2ccccc2oc1=O [Compound 3q, (E)-3-[3-(4-chlorophenyl)acryloyl]-2H-chromen-2-one] | – | 29.7 ± 2.68 | Ki [2]: 16.1 µM; Inhibition mechanism (inhibition type) [2]: mixed-type inhibition; KIS ([2]; inhibition constant): 20.34 µM; Reversibility of inhibition [2]: reversible |
| O=C(/C=C/c1cccc(Cl)c1)c1cc2ccccc2oc1=O [Compound 3p, (E)-3-[3-(3-chlorophenyl)acryloyl]-2H-chromen-2-one] | – | 52.6 ± 2.45 | – |
| COc1ccc(/C=C/C(=O)c2cc3ccccc3oc2=O)cc1 [Compound 3e, (E)-3-[3-(4-methoxyphenyl)acryloyl]-2H-chromen-2-one] | 105 ± 1.98 | – | – |
| COc1ccccc1/C=C/C(=O)c1cc2ccccc2oc1=O [Compound 3c, (E)-3-[3-(2-methoxyphenyl)acryloyl]-2H-chromen-2-one] | 60.9 ± 2.74 | – | – |
| O=C(/C=C/c1ccc(C(F)(F)F)cc1)c1cc2ccccc2oc1=O [Compound 3n, (E)-3-{3-[4-(trifluoromethyl)phenyl]acryloyl}-2H-chromen-2-one] | 53.6 ± 1.95 | – | – |
| O=C(/C=C/c1cccc(Br)c1)c1cc2ccccc2oc1=O [Compound 3s, (E)-3-[3-(3-bromophenyl)acryloyl]-2H-chromen-2-one] | – | 35.6 ± 2.18 | – |
| Cc1ccc(/C=C/C(=O)c2cc3ccccc3oc2=O)cc1 [Compound 3b, (E)-3-[3-(p-tolyl)acryloyl]-2H-chromen-2-one] | 95.2 ± 1.35 | – | – |
| O=C(/C=C/c1ccc(F)cc1)c1cc2ccccc2oc1=O [Compound 3i, (E)-3-[3-(4-fluorophenyl)acryloyl]-2H-chromen-2-one] | – | 35.68 ± 0.28 | – |
| O=C(/C=C/c1ccccc1)c1cc2ccccc2oc1=O [Compound 3a, (E)-3-cinnamoyl-2H-chromen-2-one] | – | 125.3 ± 1.18 | – |
| O=C(/C=C/c1ccc(F)c(F)c1)c1cc2ccccc2oc1=O [Compound 3k, (E)-3-[3-(3,4-difluorophenyl)acryloyl]-2H-chromen-2-one] | 49.7 ± 3.28 | – | – |
| O=C(/C=C/c1ccccc1Cl)c1cc2ccccc2oc1=O [Compound 3o, (E)-3-[3-(2-chlorophenyl)acryloyl]-2H-chromen-2-one] | – | 59.7 ± 1.73 | – |
| O=C(/C=C/c1ccccc1C(F)(F)F)c1cc2ccccc2oc1=O [Compound 3l, (E)-3-{3-[2-(trifluoromethyl)phenyl]acryloyl}-2H-chromen-2-one] | 71.5 ± 2.14 | – | – |
| O=C(/C=C/c1ccc(Br)cc1)c1cc2ccccc2oc1=O [Compound 3t, (E)-3-[3-(4-bromophenyl)acryloyl]-2H-chromen-2-one] | – | 24.1 ± 2.36 | Ki [2]: 11 µM; Inhibition mechanism (inhibition type) [2]: mixed-type inhibition; Reversibility of inhibition [2]: reversible |
| COc1cccc(/C=C/C(=O)c2cc3ccccc3oc2=O)c1 [Compound 3d, (E)-3-[3-(3-methoxyphenyl)acryloyl]-2H-chromen-2-one] | 96.4 ± 1.37 | – | – |
| O=C(/C=C/c1cccc(F)c1)c1cc2ccccc2oc1=O [Compound 3h, (E)-3-[3-(3-fluorophenyl)acryloyl]-2H-chromen-2-one] | – | 45.7 ± 1.28 | – |
